Experimental findings from ChEMBL document CHEMBL5465560, “Selectivity Literature for EUbOPEN Chemogenomic Library” (2024) are described below.

Molecules are shown by their SMILES.

The target of test [1] is Homeodomain-interacting protein kinase 3 (Homo sapiens, UniProt Q9H422). In words: Selectivity interaction (Eurofins kinase panel) EUB0000008b HIPK3. As to conditions: at 1 µM.
For test [2], the target named is Homeodomain-interacting protein kinase 4 (Homo sapiens, UniProt Q8NE63). As to the kind of experiment: Selectivity interaction (NanoBRET assay (using HEK293T cells)) EUB0000008b HIPK4. Type of test: cell-based, HEK-293T.
Homeodomain-interacting protein kinase 4, sequence (Q8NE63 whole entry): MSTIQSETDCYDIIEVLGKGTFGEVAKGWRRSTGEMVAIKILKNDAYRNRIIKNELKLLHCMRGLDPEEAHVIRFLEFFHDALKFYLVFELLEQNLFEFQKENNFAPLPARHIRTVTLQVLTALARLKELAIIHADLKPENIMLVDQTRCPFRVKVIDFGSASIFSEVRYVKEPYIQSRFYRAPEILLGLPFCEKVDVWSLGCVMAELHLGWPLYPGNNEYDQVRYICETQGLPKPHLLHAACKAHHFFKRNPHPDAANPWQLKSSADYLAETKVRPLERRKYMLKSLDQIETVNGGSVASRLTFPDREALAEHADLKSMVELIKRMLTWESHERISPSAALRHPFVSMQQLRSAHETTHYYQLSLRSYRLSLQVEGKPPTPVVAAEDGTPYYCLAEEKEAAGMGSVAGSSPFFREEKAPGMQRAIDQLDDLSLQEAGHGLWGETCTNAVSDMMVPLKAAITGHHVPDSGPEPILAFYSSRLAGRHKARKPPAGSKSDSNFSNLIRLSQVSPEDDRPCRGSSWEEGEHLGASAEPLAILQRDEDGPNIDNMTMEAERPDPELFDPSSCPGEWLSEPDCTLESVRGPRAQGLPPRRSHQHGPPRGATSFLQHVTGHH
For test [3], the target named is T1, Glycogen synthase kinase-3 alpha (Homo sapiens, UniProt P49840). In words: Selectivity interaction (Eurofins kinase panel) EUB0000008b GSK3A. As to conditions: at 1 µM.
T1 sequence (P49840 2-483 limits assumed): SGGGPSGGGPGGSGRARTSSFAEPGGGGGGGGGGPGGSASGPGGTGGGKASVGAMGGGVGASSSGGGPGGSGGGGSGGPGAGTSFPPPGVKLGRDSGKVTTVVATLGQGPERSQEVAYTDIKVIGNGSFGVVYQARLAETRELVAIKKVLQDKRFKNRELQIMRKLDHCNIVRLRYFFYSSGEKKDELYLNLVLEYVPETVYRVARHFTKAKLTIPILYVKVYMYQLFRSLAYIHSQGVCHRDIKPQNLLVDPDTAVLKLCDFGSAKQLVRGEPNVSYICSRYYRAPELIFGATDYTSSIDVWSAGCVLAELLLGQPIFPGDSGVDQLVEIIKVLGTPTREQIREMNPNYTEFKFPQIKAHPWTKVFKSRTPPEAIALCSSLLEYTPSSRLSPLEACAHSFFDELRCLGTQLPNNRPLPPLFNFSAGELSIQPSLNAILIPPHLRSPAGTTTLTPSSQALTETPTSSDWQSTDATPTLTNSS
Test [4] deals with T2, Homeodomain-interacting protein kinase 2 (Homo sapiens, UniProt Q9H2X6). As to the kind of experiment: Selectivity interaction (Eurofins kinase panel) EUB0000008b HIPK2. As to conditions: at 1 µM.
Target sequence in this assay (Q9H2X6 whole entry, looked up): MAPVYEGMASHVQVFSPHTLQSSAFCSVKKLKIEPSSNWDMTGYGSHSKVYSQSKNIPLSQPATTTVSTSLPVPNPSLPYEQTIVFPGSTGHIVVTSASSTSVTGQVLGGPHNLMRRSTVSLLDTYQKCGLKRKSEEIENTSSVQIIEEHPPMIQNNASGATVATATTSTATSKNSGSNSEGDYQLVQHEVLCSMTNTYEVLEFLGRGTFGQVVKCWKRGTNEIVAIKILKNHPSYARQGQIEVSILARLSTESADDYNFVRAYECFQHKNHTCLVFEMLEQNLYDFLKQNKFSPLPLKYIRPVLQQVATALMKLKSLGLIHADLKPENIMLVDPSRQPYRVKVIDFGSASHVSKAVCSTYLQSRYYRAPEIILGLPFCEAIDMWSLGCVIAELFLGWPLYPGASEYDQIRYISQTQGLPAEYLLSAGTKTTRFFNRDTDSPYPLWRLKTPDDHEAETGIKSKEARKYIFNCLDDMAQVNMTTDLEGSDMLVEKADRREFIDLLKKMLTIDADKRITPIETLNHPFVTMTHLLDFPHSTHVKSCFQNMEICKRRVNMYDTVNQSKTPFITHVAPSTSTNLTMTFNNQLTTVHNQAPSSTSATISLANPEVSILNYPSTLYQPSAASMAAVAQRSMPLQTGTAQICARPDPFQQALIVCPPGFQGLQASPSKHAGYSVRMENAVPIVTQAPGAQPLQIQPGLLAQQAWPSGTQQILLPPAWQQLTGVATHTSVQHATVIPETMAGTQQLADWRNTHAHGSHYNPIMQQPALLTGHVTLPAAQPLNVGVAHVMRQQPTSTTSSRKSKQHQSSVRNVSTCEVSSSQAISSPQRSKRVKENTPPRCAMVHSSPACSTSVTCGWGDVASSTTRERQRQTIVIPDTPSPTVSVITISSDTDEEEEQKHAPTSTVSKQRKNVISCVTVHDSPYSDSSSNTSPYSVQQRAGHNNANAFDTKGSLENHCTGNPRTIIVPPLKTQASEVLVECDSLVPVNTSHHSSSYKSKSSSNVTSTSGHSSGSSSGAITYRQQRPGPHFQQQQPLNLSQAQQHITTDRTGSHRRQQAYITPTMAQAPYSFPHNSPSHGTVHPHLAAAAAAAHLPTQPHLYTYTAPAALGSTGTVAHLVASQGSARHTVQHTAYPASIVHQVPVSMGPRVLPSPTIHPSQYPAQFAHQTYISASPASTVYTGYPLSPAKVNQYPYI
The target in test [5] is T2, Homeodomain-interacting protein kinase 2. In words: Selectivity interaction (NanoBRET assay (using HEK293T cells)) EUB0000008b HIPK2. Type of test: cell-based, HEK-293T.
Target sequence in this assay (Q9H2X6 whole entry): as the sequence (Q9H2X6 whole entry, looked up) above
Test [6] shares this target. As to the kind of experiment: Selectivity interaction (Eurofins binding assay) EUB0000008b HIPK2.
Target sequence in this assay (Q9H2X6 whole entry): as the sequence (Q9H2X6 whole entry, looked up) above
Test [7] deals with T3, Ephrin type-A receptor 1 (Homo sapiens) (UniProt P21709).
T3 sequence (whole entry): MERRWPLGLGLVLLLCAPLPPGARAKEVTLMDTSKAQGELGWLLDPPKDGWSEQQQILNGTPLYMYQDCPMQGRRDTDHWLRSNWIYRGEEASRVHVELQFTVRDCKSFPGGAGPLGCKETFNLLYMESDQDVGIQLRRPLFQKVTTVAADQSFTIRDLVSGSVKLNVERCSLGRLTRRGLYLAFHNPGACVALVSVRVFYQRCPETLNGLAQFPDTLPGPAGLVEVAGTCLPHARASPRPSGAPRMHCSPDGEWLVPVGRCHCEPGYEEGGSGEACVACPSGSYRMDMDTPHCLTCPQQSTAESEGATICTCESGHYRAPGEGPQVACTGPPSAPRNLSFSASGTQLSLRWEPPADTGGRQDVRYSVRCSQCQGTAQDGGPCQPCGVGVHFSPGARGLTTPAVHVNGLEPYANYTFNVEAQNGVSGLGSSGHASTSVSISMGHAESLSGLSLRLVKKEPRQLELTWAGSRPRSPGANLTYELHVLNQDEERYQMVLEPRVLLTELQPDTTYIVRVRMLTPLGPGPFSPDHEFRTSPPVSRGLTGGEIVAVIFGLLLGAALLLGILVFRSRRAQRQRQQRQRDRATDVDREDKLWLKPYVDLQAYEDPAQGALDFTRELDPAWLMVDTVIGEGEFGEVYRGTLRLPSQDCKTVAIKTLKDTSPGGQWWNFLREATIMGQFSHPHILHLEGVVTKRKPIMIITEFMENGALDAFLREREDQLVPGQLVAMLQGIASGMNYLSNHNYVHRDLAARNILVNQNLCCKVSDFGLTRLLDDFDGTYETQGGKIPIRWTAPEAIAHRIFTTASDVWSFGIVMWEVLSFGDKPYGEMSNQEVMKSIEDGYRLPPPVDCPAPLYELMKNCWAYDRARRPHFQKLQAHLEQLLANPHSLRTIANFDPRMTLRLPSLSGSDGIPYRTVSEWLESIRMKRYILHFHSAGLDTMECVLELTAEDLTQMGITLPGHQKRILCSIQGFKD
In words: Selectivity interaction (KinaseProfilerTM (Merck Millipore) ) EUB0001631a EPHA1. As to conditions: at 10 µM.

In test [8] the target is CDK11A/Cyclin L2 (Homo sapiens) (UniProt Q9UQ88+Q96S94). As to the kind of experiment: Selectivity interaction (NanoBRET assay in HEK293T cells) EUB0001631a CDK11A. It counts as cell-based. As to conditions: HEK-293T, at 10 µM.
Test [9] deals with High affinity nerve growth factor receptor (Homo sapiens, UniProt P04629). As to the kind of experiment: Selectivity interaction (KinaseProfilerTM (Merck Millipore) ) EUB0001631a NTRK1. As to conditions: at 10 µM.
The target of test [10] is CDK8/Cyclin C (Homo sapiens) (UniProt P49336+P24863). In words: Selectivity interaction (NanoBRET assay in HEK293T cells) EUB0001631a CDK8. It counts as cell-based. As to conditions: HEK-293T, at 10 µM. (In general: In BRET a luciferase serves as donor, and the signal depends on an acceptor being close.)
In test [11] the target is Glycogen synthase kinase-3 beta (Homo sapiens, UniProt P49841). As to the kind of experiment: Selectivity interaction (KinaseProfilerTM (Merck Millipore) ) EUB0001631a GSK3B. As to conditions: at 10 µM.
Test [12] has as its target CDK1/Cyclin E (Homo sapiens) (UniProt P06493+P24864). In words: Selectivity interaction (NanoBRET assay in HEK293T cells) EUB0001631a CDK1. It counts as cell-based. As to conditions: HEK-293T, at 10 µM.
In test [13] the target is CDK1/Cyclin E (Homo sapiens) (UniProt P06493+P24864+O96020). As to the kind of experiment: Selectivity interaction (KinaseProfilerTM (Merck Millipore) ) EUB0001631a CDK1. As to conditions: at 10 µM. It counts as protein-complex assay.
The target in test [14] is Tyrosine-protein kinase Fyn (Homo sapiens) (UniProt P06241). In words: Selectivity interaction (KinaseProfilerTM (Merck Millipore) ) EUB0001631a FYN. As to conditions: at 10 µM.
Test [15] has as its target CDK15/Cyclin Y (Homo sapiens) (UniProt Q96Q40+Q8ND76). As to the kind of experiment: Selectivity interaction (NanoBRET assay in HEK293T cells) EUB0001631a CDK15. As to conditions: HEK-293T, at 10 µM. Type of test: cell-based.
Test [16] deals with CDK18/Cyclin Y (Homo sapiens) (UniProt Q07002+Q8ND76). In words: Selectivity interaction (NanoBRET assay in HEK293T cells) EUB0001631a CDK18. It counts as cell-based. As to conditions: HEK-293T, at 10 µM.
Test [17] has as its target CDK11B/Cyclin L2 (Homo sapiens) (UniProt P21127+Q96S94). As to the kind of experiment: Selectivity interaction (NanoBRET assay in HEK293T cells) EUB0001631a CDK11B. Type of test: cell-based. As to conditions: HEK-293T, at 10 µM.
For test [18], the target named is Cyclin-dependent kinase 14/Cyclin-Y (Homo sapiens) (UniProt O94921+Q8ND76). As to the kind of experiment: Selectivity interaction (NanoBRET assay in HEK293T cells) EUB0001631a CDK14. As to conditions: HEK-293T, at 10 µM. It counts as cell-based.
The target in test [19] is CDK3/Cyclin E (Homo sapiens) (UniProt P24864+Q00526). In words: Selectivity interaction (NanoBRET assay in HEK293T cells) EUB0001631a CDK3. It counts as cell-based. As to conditions: HEK-293T, at 10 µM.
Test [20] has as its target T4, Cyclin-dependent kinase 5/CDK5 activator 1 (Homo sapiens) (UniProt Q00535+Q15078). In words: Selectivity interaction (NanoBRET assay in HEK293T cells) EUB0001631a CDK5. It counts as cell-based. As to conditions: HEK-293T, at 10 µM.
The target of test [21] is CDK6/cyclin D1 (Homo sapiens) (UniProt P24385+Q00534). As to the kind of experiment: Selectivity interaction (NanoBRET assay in HEK293T cells) EUB0001631a CDK6. Type of test: cell-based. As to conditions: HEK-293T, at 10 µM.
Test [22] concerns the target CDK12/Cyclin K (Homo sapiens) (UniProt O75909+Q9NYV4). As to the kind of experiment: Selectivity interaction (NanoBRET assay in HEK293T cells) EUB0001631a CDK12. Type of test: cell-based. As to conditions: HEK-293T, at 10 µM.
Test [23] addresses CDK10/Cyclin L2 (Homo sapiens) (UniProt Q15131+Q96S94). In words: Selectivity interaction (NanoBRET assay in HEK293T cells) EUB0001631a CDK10. Type of test: cell-based. As to conditions: HEK-293T, at 10 µM.
The target in test [24] is T1, Glycogen synthase kinase-3 alpha. As to the kind of experiment: Selectivity interaction (KinaseProfilerTM (Merck Millipore) ) EUB0001631a GSK3A. As to conditions: at 10 µM.
The target in test [25] is Vascular endothelial growth factor receptor 3 (Homo sapiens, UniProt P35916). As to the kind of experiment: Selectivity interaction (KinaseProfilerTM (Merck Millipore) ) EUB0001631a FLT4. As to conditions: at 10 µM.
In test [26] the target is Cyclin-dependent kinase 4/cyclin D1 (Homo sapiens) (UniProt P11802+P24385). As to the kind of experiment: Selectivity interaction (NanoBRET assay in HEK293T cells) EUB0001631a CDK4. Type of test: cell-based. As to conditions: HEK-293T, at 10 µM.
Test [27] concerns the target Cyclin-dependent kinase 2/cyclin E (Homo sapiens) (UniProt P24864+P24941+O96020). As to the kind of experiment: Selectivity interaction (KinaseProfilerTM (Merck Millipore) ) EUB0001631a CDK2. As to conditions: at 10 µM. It counts as protein-complex assay.
In test [28] the target is CDK9/Cyclin K (Homo sapiens) (UniProt P50750+O75909). As to the kind of experiment: Selectivity interaction (NanoBRET assay in HEK293T cells) EUB0001631a CDK9. It counts as cell-based. As to conditions: HEK-293T, at 10 µM.
Test [29] deals with CDK3/cyclin E (Homo sapiens) (UniProt P24864+O96020+Q00526). As to the kind of experiment: Selectivity interaction (KinaseProfilerTM (Merck Millipore) ) EUB0001631a CDK3. Type of test: protein-complex assay. As to conditions: at 10 µM.
The target of test [30] is Mast/stem cell growth factor receptor Kit (Homo sapiens, UniProt P10721). In words: Selectivity interaction (KinaseProfilerTM (Merck Millipore) ) EUB0001631a KIT. As to conditions: at 10 µM.
The target in test [31] is Cyclin-dependent kinase 2/cyclin E1 (Homo sapiens) (UniProt P24864+P24941). As to the kind of experiment: Selectivity interaction (NanoBRET assay in HEK293T cells) EUB0001631a CDK2. As to conditions: HEK-293T, at 10 µM. Type of test: cell-based.
In test [32] the target is T4, Cyclin-dependent kinase 5/CDK5 activator 1 (Homo sapiens). As to the kind of experiment: Selectivity interaction (KinaseProfilerTM (Merck Millipore) ) EUB0001631a CDK5. Type of test: protein-complex assay. As to conditions: at 10 µM.
Test [33] deals with Cyclin-C/Cyclin-dependent kinase 19 (Homo sapiens) (UniProt Q9BWU1+P24863). As to the kind of experiment: Selectivity interaction (NanoBRET assay in HEK293T cells) EUB0001631a CDK19. It counts as cell-based. As to conditions: HEK-293T, at 10 µM.
Test [34] addresses Cyclin-dependent kinase 7 (Homo sapiens, UniProt P50613). As to the kind of experiment: Selectivity interaction (NanoBRET assay in HEK293T cells) EUB0001631a CDK7. Type of test: cell-based. As to conditions: HEK-293T, at 10 µM.
Test [35] deals with Cyclin-Y/Cyclin-dependent kinase 16 (Homo sapiens) (UniProt Q00536+Q8ND76). In words: Selectivity interaction (NanoBRET assay in HEK293T cells) EUB0001631a CDK16. It counts as cell-based. As to conditions: HEK-293T, at 10 µM.
The target in test [36] is CDK20/Cyclin H (Homo sapiens) (UniProt P51946+Q8IZL9). As to the kind of experiment: Selectivity interaction (NanoBRET assay in HEK293T cells) EUB0001631a CDK20. It counts as cell-based. As to conditions: HEK-293T, at 10 µM.
For test [37], the target named is Cyclin-dependent kinase 13/Cyclin-K (Homo sapiens) (UniProt Q14004+O75909). In words: Selectivity interaction (NanoBRET assay in HEK293T cells) EUB0001631a CDK13. It counts as cell-based. As to conditions: HEK-293T, at 10 µM.
Test [38] deals with CDK17/Cyclin-Y (Homo sapiens) (UniProt Q00537+Q8ND76). In words: Selectivity interaction (NanoBRET assay in HEK293T cells) EUB0001631a CDK17. It counts as cell-based. As to conditions: HEK-293T, at 10 µM.
CDK17/Cyclin-Y (Homo sapiens), sequence (Q00537 whole entry): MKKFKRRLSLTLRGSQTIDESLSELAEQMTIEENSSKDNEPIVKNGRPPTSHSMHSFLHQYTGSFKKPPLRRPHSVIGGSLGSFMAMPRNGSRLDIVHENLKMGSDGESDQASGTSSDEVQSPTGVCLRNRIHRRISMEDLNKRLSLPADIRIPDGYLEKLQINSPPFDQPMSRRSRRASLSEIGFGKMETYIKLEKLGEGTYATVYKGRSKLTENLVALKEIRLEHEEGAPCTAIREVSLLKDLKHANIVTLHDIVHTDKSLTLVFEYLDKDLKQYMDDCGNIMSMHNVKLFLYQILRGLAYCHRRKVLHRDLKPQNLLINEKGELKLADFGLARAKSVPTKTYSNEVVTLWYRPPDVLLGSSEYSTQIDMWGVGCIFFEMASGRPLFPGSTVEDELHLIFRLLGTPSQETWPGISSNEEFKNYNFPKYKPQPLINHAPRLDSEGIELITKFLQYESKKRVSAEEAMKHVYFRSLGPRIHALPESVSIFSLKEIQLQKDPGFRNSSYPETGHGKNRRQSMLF
CDK17/Cyclin-Y (Homo sapiens), sequence (Q8ND76 2-341 partner limits assumed): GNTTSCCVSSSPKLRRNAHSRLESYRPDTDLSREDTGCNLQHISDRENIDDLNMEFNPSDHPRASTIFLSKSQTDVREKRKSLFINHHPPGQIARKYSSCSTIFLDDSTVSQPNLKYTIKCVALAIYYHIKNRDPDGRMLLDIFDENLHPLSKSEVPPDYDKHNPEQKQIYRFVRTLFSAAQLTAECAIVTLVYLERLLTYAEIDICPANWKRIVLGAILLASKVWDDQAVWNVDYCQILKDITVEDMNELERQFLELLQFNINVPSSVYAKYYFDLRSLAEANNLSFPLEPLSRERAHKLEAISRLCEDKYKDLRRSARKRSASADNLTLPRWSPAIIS

T4 sequence (Q00535 whole entry): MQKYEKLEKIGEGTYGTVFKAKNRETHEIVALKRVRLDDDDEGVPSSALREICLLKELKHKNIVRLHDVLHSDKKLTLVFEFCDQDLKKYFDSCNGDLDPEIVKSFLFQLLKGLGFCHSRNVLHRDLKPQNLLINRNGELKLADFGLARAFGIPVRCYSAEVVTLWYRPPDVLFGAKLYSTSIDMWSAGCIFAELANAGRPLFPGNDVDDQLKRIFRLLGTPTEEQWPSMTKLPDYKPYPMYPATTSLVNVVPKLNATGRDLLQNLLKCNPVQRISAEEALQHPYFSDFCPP
T4 sequence (Q15078 99-307 partner limits assumed): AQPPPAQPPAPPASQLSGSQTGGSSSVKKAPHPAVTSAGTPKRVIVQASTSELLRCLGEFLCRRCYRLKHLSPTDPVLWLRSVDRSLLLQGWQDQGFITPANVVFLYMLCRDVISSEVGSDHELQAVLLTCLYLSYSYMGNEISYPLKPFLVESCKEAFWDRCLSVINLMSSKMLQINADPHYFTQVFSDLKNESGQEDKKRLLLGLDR
Homeodomain-interacting protein kinase 3, sequence (Q9H422 whole entry, looked up): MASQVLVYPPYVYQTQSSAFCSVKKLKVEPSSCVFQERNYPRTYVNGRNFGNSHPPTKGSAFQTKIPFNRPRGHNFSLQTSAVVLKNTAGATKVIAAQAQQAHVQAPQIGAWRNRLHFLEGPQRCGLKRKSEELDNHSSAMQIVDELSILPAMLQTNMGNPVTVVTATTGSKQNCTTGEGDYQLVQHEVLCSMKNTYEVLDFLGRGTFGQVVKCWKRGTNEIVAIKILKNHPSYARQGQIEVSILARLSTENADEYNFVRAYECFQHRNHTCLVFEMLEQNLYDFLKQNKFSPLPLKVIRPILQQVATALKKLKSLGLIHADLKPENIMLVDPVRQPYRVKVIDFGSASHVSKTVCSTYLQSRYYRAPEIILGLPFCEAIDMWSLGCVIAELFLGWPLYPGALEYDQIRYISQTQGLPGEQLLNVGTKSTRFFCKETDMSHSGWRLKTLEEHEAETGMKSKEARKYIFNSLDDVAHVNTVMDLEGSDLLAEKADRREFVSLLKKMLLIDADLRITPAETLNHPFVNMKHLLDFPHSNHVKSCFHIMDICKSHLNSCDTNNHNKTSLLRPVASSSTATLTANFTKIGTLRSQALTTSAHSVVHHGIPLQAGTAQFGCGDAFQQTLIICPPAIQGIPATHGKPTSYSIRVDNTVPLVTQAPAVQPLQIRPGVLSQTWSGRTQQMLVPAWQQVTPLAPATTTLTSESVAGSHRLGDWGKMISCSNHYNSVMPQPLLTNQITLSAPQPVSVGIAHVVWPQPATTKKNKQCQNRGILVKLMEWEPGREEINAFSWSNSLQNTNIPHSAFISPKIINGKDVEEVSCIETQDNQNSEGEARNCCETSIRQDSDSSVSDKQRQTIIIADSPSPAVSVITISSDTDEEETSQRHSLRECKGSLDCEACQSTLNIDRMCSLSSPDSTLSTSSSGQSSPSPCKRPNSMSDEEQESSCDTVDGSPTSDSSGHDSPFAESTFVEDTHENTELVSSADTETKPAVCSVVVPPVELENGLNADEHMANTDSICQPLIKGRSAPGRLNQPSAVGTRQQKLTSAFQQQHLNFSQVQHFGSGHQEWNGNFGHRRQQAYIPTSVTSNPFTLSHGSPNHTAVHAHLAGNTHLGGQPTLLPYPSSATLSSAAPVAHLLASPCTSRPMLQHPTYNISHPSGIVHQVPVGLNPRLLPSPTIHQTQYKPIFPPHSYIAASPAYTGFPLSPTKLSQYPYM

For orientation: IC50 means the point on the concentration scale where inhibition reaches its midpoint. Lower therefore signals greater potency. Regarding `Cn1cc(-c2ccc3occ(-c4cccc(-c5ccncc5)c4)c3n2)cn1`, the results for the % of activity in test [1], in [3] and in test [4] were 94%, 90% and 99%, respectively. Also, the values for the half-maximal inhibitory concentration (IC50) in test [2], in [5] and in test [6] were 5.41 µM, over 10 µM and 23 nM, respectively.

For the compound `COc1cc(F)ccc1-c1ncnc(Nc2cccc(C[S@](C)(=N)=O)c2)n1`, the % of control in test [7] is 20%; in [9] it was 20%; in test [11], 3%; in [13], 14%; in test [14] it was 24%; in test [24] it was 4%. Moreover, the % of control is 30% in [25]; 13% in test [27]; 10% in test [29]; 6% in test [30]; 20% in [32]. Further, the % of inhibition is 10% in test [8]; 3% in test [10]; 16.6% in test [12]; 4.5% in test [15]; 19.9% in test [16]; 7.4% in test [17]. Besides, the % of inhibition is 3% in [18]; 48.4% in test [19]; 26.1% in [20]; 64.1% in [21]; 8.2% in test [22]; 6.3% in test [23]. The % of inhibition in test [26] stood at 31.5%; in [28], 97.9%; in test [31], 41.7%; in test [33], 11.1%; in test [34], 16.8%; in [35], 38.6%. In addition, the % of inhibition was determined as 1.3% in test [36], 4.8% in test [37] and 31% in test [38].
